Test results taken from a melting point compilation (Tetko et al.; mined from patent text by program, amines drawn as free bases though some values may be those of a salt).

SMILES | melting point [°C]
CN1C(=O)N(c2ccc(C#N)c(C(F)(F)F)c2)C(=O)C1(C)C | 158
c1ccc(CN2CC3OC(C4OCCO4)(C2)c2ccccc23)cc1 (stereo not given) | 78 to 79.5
O=c1[nH]c2cscc2c(=O)n1CCN1CCN(c2ccccc2)CC1 | > 250
COc1cc2[nH]c(SCc3nccc(N4CCOCC4)c3F)nc2cc1C | 124 to 126
O=C(NCc1ccccn1)Nc1cc(N2CC(COCc3ccccc3)OC2=O)ccn1 (stereo not given) | 134 to 135
CCN(CC)c1ccc(C2(c3c(C)n(CC)c4ccccc34)OC(=O)c3ccccc32)c(OCc2ccccc2)c1 (stereo not given) | 138
O=C(CC12CC3CC(CC(C3)C1)C2)Nc1cc(O)ccc1Cl | 224 to 225
Fc1ccc(-c2cc(SC(F)(F)C(F)F)[nH]c2-c2ccc(F)cc2)cc1 | 70.5 to 71
CCCCCCCCc1sc(NC(=O)C2(C)Cc3cc(C)ccc3N2Cc2cccc(C(=O)OC)c2)nc1-c1cc(OC)c(Cl)cc1OC (stereo not given) | 165 to 166
Nc1cc(C(c2ccc([N+](=O)[O-])c(N)c2)(C(F)(F)F)C(F)(F)F)ccc1[N+](=O)[O-] | 257 to 259
COc1cc(Nc2c(C#N)cnc3cc(C#CCN4CCN(C)CC4)sc23)cc(OC)c1OC | 180 to 182
CC(=Cc1ccccc1)CN1CCc2nc(N)sc2CC1 | 112 to 115
O=C1c2cccc(-n3c(=O)[nH]c4ncccc4c3=O)c2C2CCCCN12 (stereo not given) | > 290
CC1(C)SCc2ccccc2C1=NO | 83 to 84
C#CCCCCCCOC(c1ccccc1)(c1ccccc1)c1ccccc1 | 43 to 45
CCOC(=O)CSc1nc(Cl)cc(Nc2ccc(Cl)cc2)n1 | 109 to 112
CC(C)(C)OC(=O)N1CCC(COc2ccc(N3CCCC3)cc2)CC1 | 141 to 145
CCCc1cc(=O)oc2cc(OC(=O)C(C)(C)C)cc(OC(=O)C(C)(C)C)c12 | 110 to 112
COc1ccc(CNc2nc(N)c(C(=O)c3cc(C)sc3C)s2)cc1 | 175
CN1CCC(c2c[nH]c3ccc([N+](=O)[O-])cc23)CC1 | 200 to 202
CN(C)/C(=C1/Sc2ccccc2C1=O)c1ccccc1 | 179 to 180
Cc1c(-c2ccc(Cl)c(C(=O)N(C)C)c2)sc2nc(N)[nH]c(=O)c12 | 300 to 320
COC(=O)CCC(C)C(=O)O (stereo not given) | 97 to 99
Cn1cc(C2=C(n3ccc4ccccc43)C(=O)NC2=O)c2ccccc21 | 235 to 236
O=C1CNc2ncc(-c3cnc4[nH]ccc4c3)nc2N1CCC1CCOCC1 | 255 to 258

SMILES | melting point [°C]
O=[N+]([O-])c1cc(C(F)(F)F)ccc1S(=O)(=O)NCC(O)(Cn1cncn1)c1ccc(Cl)cc1Cl (stereo not given) | 97 to 105
CC(C)Oc1ccc(CCCOc2cc(CCC(=O)O)n(C(C)C)n2)c(Oc2ncc(C(F)(F)F)cc2Cl)c1 | 128
CCOCc1nc2c(N)nc3cc(N4CCCC4=O)cnc3c2n1CC(C)C | 198
CCCCc1ncc(/C=C(\Cc2cccs2)C(=O)O)n1Cc1ccc(C(N)=O)cc1 | 210 to 212
C=CC=CCC1CC(NC(=O)C(F)(F)F)C(O)C(C)O1 (stereo not given) | 111 to 112
FC(F)(F)c1ccc(-c2ccc3[nH]c4c(ccc5cc[nH]c54)c3c2)cc1 | > 250
CC(C)c1sc(-c2nccs2)c2c1C(=O)CC(C)(C)C2 | 106 to 108
O=C(Nc1ccc(C(=O)O)cc1)OCCCCC1c2ccccc2-c2ccccc21 | 146 to 149
COc1cccc(-n2c(=O)n(O)c(=O)c3cc(F)c(N4CCN(C)CC4)cc32)c1 | 158 to 160
Cc1nc2ccc(-c3ccc(OCC4(NC(=O)C5CC5)COC4)cc3)nn2c1-c1cnc(N)c(C(F)(F)F)c1 | 191 to 193
COc1cc(OC)nc(NC(=O)NS(=O)(=O)c2c(Cl)cccc2CN2CCOC2=O)n1 | 135 to 136
COC(=O)C1=C(CO)NC(C)=C(C(=O)OCC(C)(C)C)C1c1ccccc1C#N (stereo not given) | 178 to 180
Cc1[nH]c(C(=O)N2CCC(C(=O)O)CC2)c(C)c1-c1nc2ccc(C(=O)c3ccccc3)cc2[nH]1 | 267 to 271
O=C(CC1CCCCC1=O)c1ccc([N+](=O)[O-])cc1 (stereo not given) | 61 to 63
CCCCC1c2ccccc2-c2ccccc2N1S(=O)(=O)c1ccc(OC)cc1 (stereo not given) | 127 to 129
CCOC(=O)/C=C1\C[C@@H]2c3cccc4[nH]cc(c34)C[C@H]2N(C)C1 | 170 to 171
COC(=O)c1ccc(CNC(=O)c2c(N)cc(Cl)cc2Cl)cc1 | 132 to 137
C=CCN1CCCC1CNC(C)=O (stereo not given) | 42
CS(=O)(=O)OCCC1=C(CCOS(C)(=O)=O)c2ccccc2Sc2ccccc21 | 107 to 108
O=C(Nc1nc(-c2ccco2)c(C(=O)c2ccccn2)s1)c1ccncc1 | 218 to 227
CC1(C)Oc2c([N+](=O)[O-])ccc(Cl)c2C1=O | 167 to 168
CCCCc1nc2c(N)nc3ccccc3c2n1CCOCCS(C)(=O)=O | 168 to 170
OCc1c(C(F)(F)F)n(Cc2ccccc2)c2ccccc12 | 96
O=C(c1ncc[nH]1)C1CCN(Cc2ccccc2)CC1 | 121
O=C(N[C@H](Cc1ccccc1)C(=O)O)OCc1ccc2oc(-c3ccccc3)nc2c1 | 220 to 221
